Measured values as given in patent US12161609B2, “Composition and method for treating autism spectrum disorder (ASD) symptoms of paranoia with self isolation and/or aggression” (priority 2021, dated 2024).

Columns and labels:
[1] = tested on: ASD aggression toward others or self and paranoia/social isolation; details: for aggression and self-injury: Example 1: ASD person (when on the combination); for aggression and self-injury / paranoia/social isolation behavior: combination dosed twice daily as in TABLE 1; for loss of effectiveness (tachyphylaxis): after two years use
autistic patients = details: oxcarbazepine alone vs. placebo, 2011 to 2021; cited from earlier work

| SMILES | aggression and self-injury [1] | paranoia/social isolation behavior ([1]; Example 1: ASD person) | loss of effectiveness (tachyphylaxis) ([1]; summary over the ASD subjects) | further results |
| --- | --- | --- | --- | --- |
| O=C1CCc2ccc(OCCCCN3CCN(c4cccc(Cl)c4Cl)CC3)cc2N1 [aripiprazole] | successful alleviation of aggression | improvement in paranoia/social isolation behaviors | tachyphylactic loss of effectiveness | dyskinesia / tardive dyskinesia and dystonias ([1]; Example 1: ASD person): developed tardive dyskinesia and dystonias; drug-induced hallucinations, aggression and paranoia ([1]; Example 1: within a half hour of taking the drug, after 1 and ½ years of use): induced hallucinations, severe aggression and paranoia; tardive dyskinesia / dystonic side effects ([1]; summary over the ASD subjects, long-term use (two years for the antipsychotics)): developed tardive dyskinesia |
| NC(=O)N1c2ccccc2CC(=O)c2ccccc21 [oxcarbazepine] |  |  |  | adverse effects in autistic subjects (autistic patients): so many adverse effects in autistic subjects that they drop out of the study |
| CNCCC(Oc1ccc(C(F)(F)F)cc1)c1ccccc1 (stereo not drawn) [fluoxetine] | self-injury slightly decreased | remained paranoid |  | ability to attend school ([1]; Example 1: ASD person): unable to attend schooling |
| Cc1nc2n(c(=O)c1CCN1CCC(c3noc4cc(F)ccc34)CC1)CCCC2 [risperidone] |  |  | tachyphylactic loss of effectiveness | self-injury behavior, aggression toward others and social isolation symptoms ([1]; Example 3: adult ASD, combination dosed early morning and after 5:00 pm): could no longer be successfully treated |
